What all share (type): biochemical
In assay [1] the target is Human plasma kallikrein (Homo sapiens (Human), UniProt P03952). The assay is described as follows: Determination of the IC50 for plasma kallikrein. To be noted: read-out: IC50 (human PKal). Here is the method:
Determination of the IC50 for Plasma Kallikrein
Human plasma kallikrein (Protogen) was incubated at 25° C. with the fluorogenic substrate H-DPro-Phe-Arg-AFC and various concentrations of the test compound. Residual enzyme activity (initial rate of reaction) was determined by measuring the change in […] at 410 nm and the IC50 value for the test compound was determined.

The target in assay [2] is Human KLK1 (Homo sapiens (Human), UniProt P06870). The assay can be described thus: Determination of the IC50 for KLK1. To be noted: human KLK1, 25° C., substrate H-DVal-Leu-Arg-AFC. The protocol:
Determination of the IC50 for KLK1
Human KLK1 (Callbiochem) was incubated at 25° C. with the fluorogenic substrate H-DVal-Leu-Arg-AFC and various concentrations of the test compound. Residual enzyme activity (initial rate of reaction) was determined by measuring the change in […] at 410 nm and the IC50 value for the test compound was determined.

Assay [3] addresses Human FXIa (Homo sapiens (Human), UniProt P03951). The assay is described as follows: Determination of the % inhibition for FXIa. To be noted: 40 μM of the test compound, human FXIa, 25° C.; for inhibition at 40 µM: read-out: % Inhibition @ 40 μM (human FXIa). Here is the method: Determination of the % Inhibition for FXIa
Human FXIa (Enzyme Research Laboratories) was incubated at 25° C. with the fluorogenic substrate Z-Gly-Pro-Arg-AFC and 40 μM of the test compound. Residual enzyme activity (initial rate of reaction) was determined by measuring the change in […].

Structures are written as SMILES. pIC50: −log10 of the molar value. A value given as a limit tells only on which side of the number the result lay.

Chain of Human FXIa (P03951 388-625 limits assumed): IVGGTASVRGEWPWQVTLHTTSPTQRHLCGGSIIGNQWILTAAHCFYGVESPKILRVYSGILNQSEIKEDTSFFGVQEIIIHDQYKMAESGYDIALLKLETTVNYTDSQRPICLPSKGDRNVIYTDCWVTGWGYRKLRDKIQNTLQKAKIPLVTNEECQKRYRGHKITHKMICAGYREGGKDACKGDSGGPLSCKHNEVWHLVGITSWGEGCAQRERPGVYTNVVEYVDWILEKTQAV
Chain of Human FXIa (P03951 19-387 partner limits assumed): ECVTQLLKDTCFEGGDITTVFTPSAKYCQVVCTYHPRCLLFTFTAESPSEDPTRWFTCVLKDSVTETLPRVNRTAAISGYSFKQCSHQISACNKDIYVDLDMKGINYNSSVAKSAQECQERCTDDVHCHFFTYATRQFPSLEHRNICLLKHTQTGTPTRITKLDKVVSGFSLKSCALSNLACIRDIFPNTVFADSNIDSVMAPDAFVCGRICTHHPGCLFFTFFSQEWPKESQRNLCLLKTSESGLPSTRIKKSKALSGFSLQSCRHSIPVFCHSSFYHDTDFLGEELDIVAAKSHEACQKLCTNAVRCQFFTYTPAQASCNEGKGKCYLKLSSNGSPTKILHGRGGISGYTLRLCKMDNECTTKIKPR
Chain of Human plasma kallikrein (P03952 391-638): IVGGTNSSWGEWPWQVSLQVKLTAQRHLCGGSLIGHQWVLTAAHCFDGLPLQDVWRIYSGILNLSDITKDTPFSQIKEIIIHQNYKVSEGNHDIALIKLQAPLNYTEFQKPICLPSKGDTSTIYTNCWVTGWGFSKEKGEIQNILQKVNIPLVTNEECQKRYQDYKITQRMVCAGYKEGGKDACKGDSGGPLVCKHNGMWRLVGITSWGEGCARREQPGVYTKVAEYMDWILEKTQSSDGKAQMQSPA
Chain of Human plasma kallikrein (P03952 20-390 partner): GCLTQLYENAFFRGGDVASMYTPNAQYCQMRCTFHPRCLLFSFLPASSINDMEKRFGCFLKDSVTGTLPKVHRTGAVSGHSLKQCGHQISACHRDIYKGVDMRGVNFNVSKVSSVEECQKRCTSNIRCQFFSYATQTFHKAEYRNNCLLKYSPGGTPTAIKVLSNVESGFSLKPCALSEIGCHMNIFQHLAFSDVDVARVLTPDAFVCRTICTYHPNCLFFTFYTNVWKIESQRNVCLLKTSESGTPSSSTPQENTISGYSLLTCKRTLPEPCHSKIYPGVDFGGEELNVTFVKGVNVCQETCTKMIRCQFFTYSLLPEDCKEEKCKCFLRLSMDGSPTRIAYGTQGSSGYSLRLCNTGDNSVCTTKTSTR
Chain of Human KLK1 (P06870 25-262): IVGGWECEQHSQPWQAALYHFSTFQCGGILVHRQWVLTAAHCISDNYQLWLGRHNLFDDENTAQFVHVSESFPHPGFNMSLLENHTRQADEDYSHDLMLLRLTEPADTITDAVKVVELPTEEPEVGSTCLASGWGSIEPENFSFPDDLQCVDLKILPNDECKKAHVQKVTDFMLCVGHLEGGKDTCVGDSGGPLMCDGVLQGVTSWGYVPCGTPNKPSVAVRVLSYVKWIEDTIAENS

As usually defined, the pIC50 is the IC50 on a negative log10 scale, so that one unit is a factor of ten. Broadly, the inhibition is the relative decrease from the control value, in per cent. As to `Nc1nn(Cc2ccc(-n3ccccc3=O)cc2)cc1C(=O)NCCOc1cccc(Cl)c1` [Example 52, 3-amino-N-[2-(3-chlorophenoxy)ethyl]-1-{[4-(2-oxopyridin-1-yl)phenyl]methyl}pyrazole-4-carboxamide], the figures for the pIC50 in assay [1] and in assay [2] were 6.47 and less than 4.40, respectively. In addition, the inhibition at 40 µM in assay [3] was 0%.
Taken in the same sequence, the figures for `COc1cc(Cn2cc(C(=O)NCCOc3cccc(Cl)c3)c(N)n2)ccn1` [Example 73, 3-amino-N-[2-(3-chlorophenoxy)ethyl]-1-[(2-methoxypyridin-4-yl)methyl]pyrazole-4-carboxamide] were less than 5.00, less than 4.40 and 0%.
`Nc1nn(Cc2cccc(-c3ccccc3)n2)cc1C(=O)NCCOc1cccc(Cl)c1` [Example 72, 3-amino-N-[2-(3-chlorophenoxy)ethyl]-1-[(6-phenylpyridin-2-yl)methyl]pyrazole-4-carboxamide]: the figures for the negative-log IC50 (pIC50) in assay [1] and in assay [2] were 5.23 and less than 4.40, respectively. Also, the inhibition at 40 µM in assay [3] amounted to 26%.
Consider `Nc1nn(Cc2ccc(N3CCCC3)nc2)cc1C(=O)NCCOc1cccc(Cl)c1` [Example 49, 3-amino-N-[2-(3-chlorophenoxy)ethyl]-1-{[6-(pyrrolidin-1-yl)pyridin-3-yl]methyl}pyrazole-4-carboxamide], for which the negative-log IC50 (pIC50) is 6.07 in assay [1] and less than 4.40 in assay [2]. The inhibition at 40 µM in assay [3] was determined as 0%.
As to `Nc1nn(Cc2ccc(CN3CCCCC3=O)cc2)cc1C(=O)NCCOc1cccc(Cl)c1` [Example 77, 3-amino-N-[2-(3-chlorophenoxy)ethyl]-1-({4-[(2-oxopiperidin-1-yl)methyl]phenyl}methyl)pyrazole-4-carboxamide], the negative logarithm of the IC50 (pIC50) in assay [1] was 6.95; in assay [2], less than 4.40. Besides, the inhibition at 40 µM in assay [3] was 0%.
As to `COCc1nn(Cc2ccc(Cn3ccccc3=O)cc2)cc1C(=O)NCCOc1ccc(F)c(Cl)c1` [Example 12, N-[2-(3-chloro-4-fluorophenoxy)ethyl]-3-(methoxymethyl)-1-({4-[(2-oxopyridin-1-yl)methyl]phenyl}methyl)pyrazole-4-carboxamide], the pIC50 in assay [1] was 6.58; in assay [2] it was less than 5.00. Moreover, in assay [3], the inhibition at 40 µM was determined as 0%.
With `Nc1nn(Cc2ccc(Cn3ccccc3=O)cc2)cc1C(=O)NCCOc1cncc(Cl)c1` [Example 18, 3-amino-N-{2-[(5-chloropyridin-3-yl)oxy]ethyl}-1-({4-[(2-oxopyridin-1-yl)methyl]phenyl}methyl)pyrazole-4-carboxamide], the figures for the negative-log IC50 (pIC50) in assay [1] and in assay [2] were 5.70 and less than 4.40, respectively. The inhibition at 40 µM in assay [3] worked out at 0%.
As to `Cc1ccc(OCCNC(=O)c2cn(Cc3ccc(Cn4ccccc4=O)cc3)nc2N)cc1Cl` [Example 15, 3-amlno-N-[2-(3-chloro-4-methylphenoxy)ethyl]-1-({4-[(2-oxopyridin-1-yl)methyl]phenyl}methyl)pyrazole-4-carboxamide], the pIC50 was 7.61 in assay [1] and less than 4.40 in assay [2]. Besides, in assay [3], the “% Inhibition @ 40 μM (human FXIa)” value is given as 1%.
Consider `CNc1nn(Cc2ccc(Cn3ccccc3=O)cc2)cc1C(=O)NCCOc1cccc(Cl)c1` [Example 37, N-[2-(3-Chlorophenoxy)ethyl]-3-(methylamino)-1-({4-[(2-oxopyridin-1-yl)methyl]phenyl}methyl)pyrazole-4-carboxamide], for which the pIC50 is 7.73 in assay [1] and less than 4.40 in assay [2]. Also, in assay [3], the inhibition at 40 µM amounted to 8%.
Taken in the same sequence, the figures for `O=C(NCCOc1cccc(Cl)c1)c1cnn(Cc2ccc(Cn3ccccc3=O)cc2)c1` [Example 36, N-[2-(3-chlorophenoxy)ethyl]-1-({4-[(2-oxopyridin-1-yl)methyl]phenyl}methyl)pyrazole-4-carboxamide] were 8.21, less than 4.40 and 0%.
`CC(=O)N(C)Cc1ccc(Cn2cc(C(=O)NCCOc3cccc(Cl)c3)c(N)n2)cc1` [Example 82, 3-amino-N-[2-(3-chlorophenoxy)ethyl]-1-({4-[(N-methylacetamido)methyl]phenyl}methyl)pyrazole-4-carboxamide]: the negative logarithm of the IC50 (pIC50) in assay [1] is 6.15; in assay [2], less than 4.40. Besides, the inhibition at 40 µM in assay [3] is 0%.
Taken in the same sequence, the figures for `Nc1nn(Cc2cccc(C(=O)N3CCCC3)c2)cc1C(=O)NCCOc1cccc(Cl)c1` [Example 70, 3-amino-N-[2-(3-chlorophenoxy)ethyl]-1-({3-[(pyrrolidin-1-yl)carbonyl]phenyl}methyl)pyrazole-4-carboxamide] were less than 5.00, less than 4.40 and 6%.
Taken in the same sequence, the figures for `Nc1nn(Cc2ccc(Cn3ccccc3=O)cc2)cc1C(=O)N[C@@H]1CCN(Cc2cccc(Cl)c2)C1` [Example 108, 3-amino-N-[(3R)-1-[(3-chlorophenyl)methyl]pyrrolidin-3-yl]-1-({4-[(2-oxopyridin-1-yl)methyl]phenyl}methyl)pyrazole-4-carboxamide] were 6.52, less than 4.40 and 0%.
Regarding `Nc1nn(Cc2ccc(Cn3ccccc3=O)cc2)cc1C(=O)N[C@H]1CCN(c2cccc(Cl)c2)C1` [Example 105, 3-amino-N-[(3S)-1-(3-chlorophenyl)pyrrolidin-3-yl]-1-({4-[(2-oxopyridin-1-yl)methyl]phenyl}methyl)pyrazole-4-carboxamide], the pIC50 in assay [1] was 8.42; in assay [2], less than 4.40. Moreover, the inhibition at 40 µM in assay [3] was 0%.
Taken in the same sequence, the figures for `Nc1c(C(=O)NCCOc2cccc(Cl)c2)cnn1Cc1ccc(Cn2ccccc2=O)cc1` [Example 17, 5-amino-N-[2-(3-chlorophenoxy)ethyl]-1-({4-[(2-oxopyridin-1-yl)methyl]phenyl}methyl)pyrazole-4-carboxamide] were 7.02, less than 5.00 and 2%.
Taken in the same sequence, the figures for `CN(C)C(=O)N(C)Cc1ccc(Cn2cc(C(=O)NCCOc3cccc(Cl)c3)c(N)n2)cc1` [Example 83, 3-amino-N-[2-(3-chlorophenoxy)ethyl]-1-[(4-{[(dimethylcarbamoyl)(methyl)amino]methyl}phenyl)methyl]pyrazole-4-carboxamide] were 6.53, less than 4.40 and 0%.
In the case of `COCc1nn(Cc2ccc(Cn3ccccc3=O)cc2)cc1C(=O)NCCOc1cccc(Cl)c1` [Example 8, N-[2-(3-chlorophenoxy)ethyl]-3-(methoxymethyl)-1-({4-[(2-oxopyridin-1-yl)methyl]phenyl}methyl)pyrazole-4-carboxamide], the results for the negative logarithm of the IC50 (pIC50) in assay [1] and in assay [2] were 7.78 and less than 5.00, respectively. Also, the inhibition at 40 µM in assay [3] worked out at 0%.
For `Nc1nn(Cc2ccc(Cn3ccccc3=O)cc2)cc1C(=O)NCCCn1cc(Cl)cn1` [Example 21, 3-amino-N-[3-(4-chloropyrazol-1-yl)propyl]-1-({4-[(2-oxopyridin-1-yl)methyl]phenyl}methyl)pyrazole-4-carboxamide], the negative-log IC50 (pIC50) in assay [1] was 5.55; in assay [2], less than 4.40. The inhibition at 40 µM in assay [3] was 56%.
For the compound `COCc1nn(Cc2ccc(Cn3ccccc3=O)cc2)cc1C(=O)NCCOc1cc(Cl)cnn1` [Example 46, N-{2-[(5-chloropyridazin-3-yl)oxy]ethyl}-3-(methoxymethyl)-1-({4-[(2-oxopyridin-1-yl)methyl]phenyl}methyl)pyrazole-4-carboxamide], the negative logarithm of the IC50 (pIC50) in assay [1] and in assay [2] was less than 5.00 in each case.
`Cc1nn(Cc2ccc(Cn3ccccc3=O)cc2)cc1C(=O)NCCOc1cccc(Cl)c1` [Example 39, N-[2-(3-chlorophenoxy)ethyl]-3-methyl-1-({4-[(2-oxopyridin-1-yl)methyl]phenyl}methyl)pyrazole-4-carboxamide]: the negative logarithm of the IC50 (pIC50) in assay [1] was 7.79; in assay [2] it was less than 4.40.
`Cc1nc2cc(Cn3cc(C(=O)NCCOc4cccc(Cl)c4)c(N)n3)ccc2n1C` [Example 95, 3-amino-N-[2-(3-chlorophenoxy)ethyl]-1-[(1,2-dimethyl-1,3-benzodiazol-5-yl)methyl]pyrazole-4-carboxamide]: the pIC50 was 5.72 in assay [1] and less than 4.40 in assay [2].
Taken in the same sequence, the figures for `Nc1nn(Cc2ccc(Cn3ccccc3=O)cn2)cc1C(=O)NCCOc1cccc(Cl)c1` [Example 102, 3-amino-N-[2-(3-chlorophenoxy)ethyl]-1-({5-[(2-oxopyridin-1-yl)methyl]pyridin-2-yl}methyl)pyrazole-4-carboxamide] were 7.14 and less than 4.40.
In the case of `CN(C)C(=O)c1cccc(Cn2cc(C(=O)NCCOc3cccc(Cl)c3)c(N)n2)c1` [Example 65, 3-amino-N-[2-(3-chlorophenoxy)ethyl]-1-{[3-(dimethylcarbamoyl)phenyl]methyl}pyrazole-4-carboxamide], the negative logarithm of the IC50 (pIC50) in assay [1] is less than 5.00; in assay [2], less than 4.40.
On to `Nc1nn(Cc2ccc(Cn3ccccc3=O)cc2F)cc1C(=O)NCCOc1cccc(Cl)c1` [Example 101, 3-amino-N-[2-(3-chlorophenoxy)ethyl]-1-({2-fluoro-4-[(2-oxopyridin-1-yl)methyl]phenyl}methyl)pyrazole-4-carboxamide], for which the negative logarithm of the IC50 (pIC50) is 8.12 in assay [1] and less than 4.40 in assay [2].

The values are drawn from US10781181B2, “N-((het) arylmethyl)-heteroaryl-carboxamides compounds as plasma kallikrein inhibitors” (Kalvista Pharmaceuticals Limited, priority 2014, dated 2020).
